The target in one data set is T1, human 5-HT7b receptors (Homo sapiens, UniProt P34969).
T1 construct: expressed in transfected cells; host or cells: HEK293
As to the kind of experiment: 5-HT7 competition radioligand binding assay ([3H]5-CT). The note with it: for Ki: read-out: Ki ± S.D. 5-HT7 binding affinity; for inhibition at 1 µM: single compound concentration of 1 µM, HEK293 cells, read-out: inhibition in library screening. On the procedure: Novel scaffold endowed with 5-HT7R activity was identified by screening of the in-house compound library in a single compound concentration of 1 µM in a competition radioligand binding assay using [^3H]5-CT and HEK293 cells overexpressing the human 5-HT7b receptors.

Where [1] appears, read: HEK293 cells overexpressing human 5-HT7b receptors, at least two independent experiments in triplicate.

Counter-ions that a name gives are not always drawn. Bounds are passed on as bounds.

T1 sequence (P34969 1-432): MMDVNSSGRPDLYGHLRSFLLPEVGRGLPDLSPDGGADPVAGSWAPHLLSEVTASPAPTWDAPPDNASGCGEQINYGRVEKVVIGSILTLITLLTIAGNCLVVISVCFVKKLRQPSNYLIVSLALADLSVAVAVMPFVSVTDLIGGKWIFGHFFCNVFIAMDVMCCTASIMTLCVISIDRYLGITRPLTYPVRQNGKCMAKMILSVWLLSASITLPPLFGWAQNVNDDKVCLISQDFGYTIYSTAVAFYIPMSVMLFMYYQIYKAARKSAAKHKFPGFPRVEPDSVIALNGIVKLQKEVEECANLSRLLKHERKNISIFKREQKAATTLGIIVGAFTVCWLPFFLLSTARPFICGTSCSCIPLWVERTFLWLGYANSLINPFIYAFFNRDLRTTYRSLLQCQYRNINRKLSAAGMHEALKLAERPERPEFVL

For `c1cc(-c2ccoc2)nc(NCCCc2ncc[nH]2)n1` (as salt: hydrobromid) [Compound 46, 4-(3-Furyl)-N-[3-(1H-imidazol-2-yl)propyl]pyrimidin-2-amine], the melting point – broadly, the temperature of the solid-liquid transition – lay within 234 to 236 °C. Still for that read-out and setting: to `Cc1ccc(-c2ccnc(N3CCN(C)CC3)n2)o1` (as salt: hydrobromid) [Compound 29, 4-(5-Methyl-2-furyl)-2-(4-methylpiperazin-1-yl)pyrimidine] belongs 263 to 265 °C; to `CN1CCN(c2nc(-c3ccoc3)cc(C(F)(F)F)n2)CC1` (as salt: hydrochloride) [Compound 16, 4-(3-Furyl)-2-(4-methylpiperazin-1-yl)-6-(trifluoromethyl)pyrimidine], more than 300 °C; to `CCCCc1cc(-c2ccoc2)nc(N2CCN(C)CC2)n1` (as salt: hydrobromid) [Compound 13, 4-(n-Butyl)-6-(3-furyl)-2-(4-methylpiperazin-1-yl)pyrimidine], 179 to 180 °C.

In turn, `c1cc(-c2ccoc2)nc(N2CCNCC2)n1` (as salt: hydrobromid) [Compound 1, 4-(3-Furyl)-2-(piperazin-1-yl)pyrimidine] yielded a melting point of 241 to 242 °C. Regarding `CN1CCN(c2nccc(-c3cccc(O)c3)n2)CC1` [Compound 34, 4-(3-Hydroxyphenyl)-2-(4-methylpiperazin-1-yl)pyrimidine], at human 5-HT7b receptors (setting [1]), the inhibition constant (Ki) (in general, a measure of affinity in units of concentration, obtained from inhibition or displacement) was more than 10000 nM. With `Cc1cc(-c2ccoc2)nc(N2CCN(C)CC2)n1` [Compound 11, 4-(3-Furyl)-6-methyl-2-(4-methylpiperazin-1-yl)pyrimidine], the Ki at human 5-HT7b receptors (setting [1]) was 3.9 ± 0.7 nM. Besides, the inhibition (in general, the drop in the measured response relative to a control, in per cent) at 1 µM at human 5-HT7b receptors was more than 60%. `CCOC(=O)CCN1CCN(c2nccc(-c3ccoc3)n2)CC1` [Compound 9, Ethyl 3-{4-{[4-(3-furyl)pyrimidin-2-yl]piperazin-1-yl}}propanoate]: at human 5-HT7b receptors (setting [1]), the Ki came out at 8.9 ± 2.1 nM. On to `c1cc(-c2ccoc2)nc(N2CCCCC2)n1` [Compound 43, 4-(3-Furyl)-2-(piperidin-1-yl)pyrimidine], for which, on human 5-HT7b receptors (setting [1]), the “Ki ± S.D. 5-HT7 binding affinity” value is listed as “no affinity” and the Ki is more than 10000 nM. As for `CCCCCCc1cc(-c2coc(C)c2)nc(N2CCN(C)CC2)n1` [Compound 25, 4-n-Hexyl-6-(5-methyl-3-furyl)-2-(4-methylpiperazin-1-yl)pyrimidine], the Ki at human 5-HT7b receptors (setting [1]) came out at 12 ± 2 nM.

For the compound “4-(3-Furyl)-2,4-bis(4-methylpiperazin-1-yl)pyrimidine [Compound 20]”, the Ki on human 5-HT7b receptors (setting [1]) was more than 10000 nM. Same read-out and setting: to `CN1CCN(c2cccc(-c3ccco3)n2)CC1` [Compound 59, 2-(2-Furyl)-6-(4-methylpiperazin-1-yl)pyridine] belongs 1140 ± 154 nM; to `CN1CCN(c2nccc(-c3ccco3)n2)CC1` [Compound 26, 4-(2-Furyl)-2-(4-methylpiperazin-1-yl)pyrimidine], 1020 ± 96 nM; to `Cc1cc(-c2ccco2)cc(N2CCN(C)CC2)c1` [Compound 64, 1-[3-(2-Furyl)-5-methylphenyl]-4-methylpiperazine], 312 ± 25 nM. On to `CN1CCN(c2nc(-c3ccoc3)cc(-c3ccoc3)n2)CC1` [Compound 18, 4,6-Bis(3-furyl)-2-(4-methylpiperazin-1-yl)pyrimidine], for which, at human 5-HT7b receptors (setting [1]), the Ki is 22 ± 2 nM. The inhibition at 1 µM on human 5-HT7b receptors was more than 60%. For the compound `CN1CCN(c2nccc(-c3ccccc3O)n2)CC1` [Compound 33, 4-(2-Hydroxyphenyl)-2-(4-methylpiperazin-1-yl)pyrimidine], on human 5-HT7b receptors (setting [1]), the Ki is more than 10000 nM.

Take `CCCCc1cc(-c2ccoc2)cc(N2CCN(C)CC2)c1` [Compound 62, 1-[3-n-Butyl-5-(3-furyl)phenyl]-4-methylpiperazine]: on human 5-HT7b receptors (setting [1]), the Ki is 106 ± 9 nM.

Regarding `CN(C)CCc1nc(N2CCN(C)CC2)nc2ccccc12` [Compound 50], the Ki on human 5-HT7b receptors (setting [1]) is more than 10000 nM.

Regarding `Cc1cc(-c2cccs2)cc(N2CCN(C)CC2)n1` [Compound 56, 2-Methyl-6-(4-methylpiperazin-1-yl)-4-(2-thienyl)pyridine], the Ki at human 5-HT7b receptors (setting [1]) turned out to be 117 ± 12 nM. Regarding `CCc1cc(-c2ccco2)nc(N2CCN(C)CC2)n1` [Compound 27, 4-Ethyl-6-(2-furyl)-2-(4-methylpiperazin-1-yl)pyrimidine], at human 5-HT7b receptors (setting [1]), the Ki was 380 ± 44 nM.

The record behind these values is article PMC6272903, “Synthesis and Structure-Activity Relationship Analysis of 5-HT7 Receptor Antagonists: Piperazin-1-yl Substituted Unfused Heterobiaryls” (Molecules, 2016).
